US20250019387A1 (Frontier Medicines Corporation, priority 0001, published 2025)

Target: KRAS G12C and cRAF (Ras-binding domain) interaction (Homo sapiens (Human), UniProt P01116, C118S/C51S/C80L/G12C)
Test: Inhibition of KRAS G12C and cRAF binding (AlphaScreen)
Conditions: GMPPNP-loaded KRAS G12C, 19-20 hours incubation with compound; read-out: IC50 (Inhibition of KRAS G12C and cRAF Binding)
Protocol: Compounds were diluted in 100% DMSO and each compound concentration was spotted at 200 nl/well onto low volume, white 384 well plates. […] Plates were incubated for 19-20 hours. A mixture of RBD and the AlphaScreen streptavidin donor and glutathione acceptor beads diluted in 25 mM Hepes, pH 7.4, 150 mM NaCl, 5 mM MgCl2, 0.01% TritonX-100 and 2% DMSO was then added at 10 ul/well and incubated for 60-90 minutes before the samples were read for emission at 570 nm after excitation of the donor beads at 680 nm. All incubations were performed at room temperature. […] IC50s were determined using nonlinear regression fit of [inhibitor]vs. response (4 parameters). […]

KRAS G12C and cRAF (Ras-binding domain) interaction, sequence (P01116 other isoform, or with tags, fused parts or gaps G12C/C51S/C80L/C118S): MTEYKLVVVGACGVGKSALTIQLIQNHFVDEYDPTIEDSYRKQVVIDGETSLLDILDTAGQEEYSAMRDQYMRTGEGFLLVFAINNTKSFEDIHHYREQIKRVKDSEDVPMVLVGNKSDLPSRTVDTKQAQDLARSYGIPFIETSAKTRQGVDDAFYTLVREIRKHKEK

| Compound | IC50 [nM] |
| --- | --- |
| CN(c1nc(OC[C@@]23CCCN2C[C@H](F)C3)nc2c(F)c(-c3cccc4ccc(F)c(Cl)c34)ncc12)[C@@H]1CCN(C(=O)/C=C/C2CCN2)C1 (stereo partly drawn) [Example 103, (E)-3-(azetidin-2-yl)-1-((R)-3-((7-(8-chloro-7-fluoronaphthalen-1-yl)-8-fluoro-2-(((2R,7aS)-2-fluorotetrahydro-1H-pyrrolizin-7a(5H)-yl)methoxy)pyrido[4,3-d]pyrimidin-4-yl)(methyl)amino)pyrrolidin-1-yl)prop-2-en-1-one] | 10 to 100 |
| CN1CCCC1/C=C/C(=O)N1CC[C@@H](N(C)c2nc(OC[C@@]34CCCN3C[C@H](F)C4)nc3c(F)c(-c4cccc5ccc(F)c(Cl)c45)ncc23)C1 (stereo partly drawn) [Example 124, (E)-1-((R)-3-((7-(8-chloro-7-fluoronaphthalen-1-yl)-8-fluoro-2-(((2R,7aS)-2-fluorotetrahydro-1H-pyrrolizin-7a(5H)-yl)methoxy)pyrido[4,3-d]pyrimidin-4-yl)(methyl)amino)pyrrolidin-1-yl)-3-(1-methylpyrrolidin-2-yl)prop-2-en-1-one] | 10 to 100 |
| C=CC(=O)CN(C)c1nc(OC[C@@H]2CCCN2C)nc2c1CCN(c1cccc3cccc(Cl)c13)C2 [Example 40, (S)-1-((7-(8-chloronaphthalen-1-yl)-2-((1-methylpyrrolidin-2-yl)methoxy)-5,6,7,8-tetrahydropyrido[3,4-d]pyrimidin-4-yl)(methyl)amino)but-3-en-2-one] | 10 to 100 |
| C=CC(=O)N1C[C@@H](F)[C@H](N(C)c2nc(OCC34CCCN3CCC4)nc3c(F)c(-c4cccc5ccc(F)c(Cl)c45)ncc23)C1 [Example 184, 1-((3R,4R)-3-((7-(8-chloro-7-fluoronaphthalen-1-yl)-8-fluoro-2-((hexahydro-1H-pyrrolizin-7a-yl)methoxy)pyrido[4,3-d]pyrimidin-4-yl)(methyl)amino)-4-fluoropyrrolidin-1-yl)prop-2-en-1-one] | 10 to 100 |
| COC(=O)/C=C/C(=O)N1CC(CN(C)c2nc(OCC34CCCN3CCC4)nc3c(F)c(-c4cccc5cccc(Cl)c45)ncc23)C1 [Example 25, methyl(E)-4-(3-(((7-(8-chloronaphthalen-1-yl)-8-fluoro-2-((tetrahydro-1H-pyrrolizin-7a(5H)-yl)methoxy)pyrido[4,3-d]pyrimidin-4-yl)(methyl)amino)methyl)azetidin-1-yl)-4-oxobut-2-enoate] | < 10 |
| CN1CC(C#CC(=O)N2CC[C@@H](N(C)c3nc(OC[C@@]45CCCN4C[C@H](F)C5)nc4c(F)c(-c5cccc6cccc(Cl)c56)ncc34)C2)C1 [Example 67, 1-((R)-3-((7-(8-chloronaphthalen-1-yl)-8-fluoro-2-(((2R,7aS)-2-fluorohexahydro-1H-pyrrolizin-7a-yl)methoxy)pyrido[4,3-d]pyrimidin-4-yl)(methyl)amino)pyrrolidin-1-yl)-3-(1-methylazetidin-3-yl)prop-2-yn-1-one] | 10 to 100 |
| Cc1nccc(/C=C/C(=O)N2CCC(Nc3nc(OC[C@@]45CCCN4C[C@H](F)C5)nc4c(F)c(-c5cccc6cccc(Cl)c56)ncc34)CC2)n1 [Example 261, (E)-1-(4-((7-(8-chloronaphthalen-1-yl)-8-fluoro-2-(((2R,7aS)-2-fluorotetrahydro-1H-pyrrolizin-7a(5H)-yl)methoxy)pyrido[4,3-d]pyrimidin-4-yl)amino)piperidin-1-yl)-3-(2-methylpyrimidin-4-yl)prop-2-en-1-one] | > 500 |
| CN1CCC[C@H]1COc1nc2c(c(N3CCC(CNC#N)CC3)n1)CCN(c1cccc3cccc(Cl)c13)C2 [Example 32, (S)-N-((1-(7-(8-chloronaphthalen-1-yl)-2-((1-methylpyrrolidin-2-yl)methoxy)-5,6,7,8-tetrahydropyrido[3,4-d]pyrimidin-4-yl)piperidin-4-yl)methyl)cyanamide] | > 500 |
| CN(CC1CN(C(=O)/C=C/c2ccncn2)C1)c1nc(OC[C@@]23CCCN2C[C@H](F)C3)nc2c(F)c(-c3cccc4cccc(Cl)c34)ncc12 [Example 63, (E)-1-(3-(((7-(8-chloronaphthalen-1-yl)-8-fluoro-2-(((2R,7aS)-2-fluorotetrahydro-1H-pyrrolizin-7a(5H)-yl)methoxy)pyrido[4,3-d]pyrimidin-4-yl)(methyl)amino)methyl)azetidin-1-yl)-3-(pyrimidin-4-yl)prop-2-en-1-one] | 10 to 100 |
| CN(c1nc(OC[C@@]23CCCN2C[C@H](F)C3)nc2c(F)c(-c3cccc4cccc(Cl)c34)ncc12)[C@@H]1CCN(C(=O)/C=C/c2ncncc2F)C1 [Example 230, (E)-1-((R)-3-((7-(8-chloronaphthalen-1-yl)-8-fluoro-2-(((2R,7aS)-2-fluorotetrahydro-1H-pyrrolizin-7a(5H)-yl)methoxy)pyrido[4,3-d]pyrimidin-4-yl)(methyl)amino)pyrrolidin-1-yl)-3-(5-fluoropyrimidin-4-yl)prop-2-en-1-one] | 10 to 100 |
| COC(=O)/C=C/C(=O)N1CCC(N(C)c2nc(OC[C@@H]3CCCN3C)nc3c2CCN(c2cccc4cccc(Cl)c24)C3)C1 (stereo partly drawn) [Example 6, methyl(E)-4-(3-((7-(8-chloronaphthalen-1-yl)-2-(((S)-1-methylpyrrolidin-2-yl)methoxy)-5,6,7,8-tetrahydropyrido[3,4-d]pyrimidin-4-yl)(methyl)amino)pyrrolidin-1-yl)-4-oxobut-2-enoate] | 10 to 100 |

Same assay, conditions: additional exemplary compounds; KRAS G12C and cRAF binding; read-out: RAF1 RBD IC50

| Compound | IC50 [nM] |
| --- | --- |
| O=C(/C=C/CN1[C@@H]2CC[C@H]1COC2)N1CCN(c2nc(OC[C@@]34CCCN3C[C@H](F)C4)nc3c(F)c(-c4cccc5cccc(Cl)c45)ncc23)CC12CC2 | > 500 |
| CC(C)c1noc(/C=C/C(=O)N2CC3CC(C2)N3c2nc(OC[C@@]34CCCN3C[C@H](F)C4)nc3c(F)c(-c4cccc5cccc(Cl)c45)ncc23)n1 | > 500 |
| CC(C)c1noc(/C=C/C(=O)N2C3CC2CN(c2nc(OC[C@@]45CCCN4C[C@H](F)C5)nc4c(F)c(-c5cccc6cccc(Cl)c56)ncc24)C3)n1 | > 500 |
| Cc1cc(/C=C/C(=O)N2CC[C@@H](N(C)c3nc(OCC45CCCN4CCC5)nc4c(F)c(-c5cccc6cccc(Cl)c56)ncc34)C2)on1 | > 500 |
| CN(CCS(=O)(=O)/C=C/CN1CCC(F)(F)C1)c1nc(OC[C@@H]2CCCN2C)nc2c(F)c(-c3cccc4cccc(Cl)c34)ncc12 | > 500 |
| CC(C)C/C=C/S(=O)(=O)CCN(C)c1nc(OCC23CCCN2CCC3)nc2c1CCN(c1cccc3cccc(Cl)c13)C2 | > 500 |
| O=C(/C=C/CN1CCOCC1)N1C2CC1CN(c1nc(OC[C@@]34CCCN3C[C@H](F)C4)nc3c(F)c(-c4cccc5cccc(Cl)c45)ncc13)C2 | > 500 |
| C=CC(=O)N1CC(CN(C)c2nc(OC[C@@]34CCCN3C[C@H](F)C4)nc3c(F)c(-c4cccc5ccc(F)c(Cl)c45)ncc23)C1 | 10 to 100 |
| C=CC(=O)N1CC[C@@H](N(C)c2nc(OC[C@@]34CCCN3C[C@H](F)C4)nc3c(F)c(-c4cc(OC(F)F)cc5ccccc45)ncc23)C1 | > 500 |
| Cc1nc(/C=C/C(=O)NCCN(C)c2nc(OCC34CCCN3CCC4)nc3c2CCN(c2cccc4cccc(Cl)c24)C3)no1 | > 500 |
| CN(C)C(=O)/C=C/C(=O)N1CC(CN(C)c2nc(OCC34CCCN3CCC4)nc3c(F)c(-c4cccc5cccc(Cl)c45)ncc23)C1 | > 500 |
| Cc1ncc(/C=C/C(=O)NCCN(C)c2nc(OCC34CCCN3CCC4)nc3c2CCN(c2cccc4cccc(Cl)c24)C3)o1 | 100 to 500 |
| C=CC(=O)CCN(C)c1nc(OC[C@@H]2CCCN2C)nc2c1CCN(c1cccc3ccccc13)C2 | > 500 |
